Biological target: PIK3CG (human) (UniProt P48736)
Test: Assessment of PIK3CG Kinase Activity

Sequence of PIK3CG (human) (P48736 whole entry, looked up): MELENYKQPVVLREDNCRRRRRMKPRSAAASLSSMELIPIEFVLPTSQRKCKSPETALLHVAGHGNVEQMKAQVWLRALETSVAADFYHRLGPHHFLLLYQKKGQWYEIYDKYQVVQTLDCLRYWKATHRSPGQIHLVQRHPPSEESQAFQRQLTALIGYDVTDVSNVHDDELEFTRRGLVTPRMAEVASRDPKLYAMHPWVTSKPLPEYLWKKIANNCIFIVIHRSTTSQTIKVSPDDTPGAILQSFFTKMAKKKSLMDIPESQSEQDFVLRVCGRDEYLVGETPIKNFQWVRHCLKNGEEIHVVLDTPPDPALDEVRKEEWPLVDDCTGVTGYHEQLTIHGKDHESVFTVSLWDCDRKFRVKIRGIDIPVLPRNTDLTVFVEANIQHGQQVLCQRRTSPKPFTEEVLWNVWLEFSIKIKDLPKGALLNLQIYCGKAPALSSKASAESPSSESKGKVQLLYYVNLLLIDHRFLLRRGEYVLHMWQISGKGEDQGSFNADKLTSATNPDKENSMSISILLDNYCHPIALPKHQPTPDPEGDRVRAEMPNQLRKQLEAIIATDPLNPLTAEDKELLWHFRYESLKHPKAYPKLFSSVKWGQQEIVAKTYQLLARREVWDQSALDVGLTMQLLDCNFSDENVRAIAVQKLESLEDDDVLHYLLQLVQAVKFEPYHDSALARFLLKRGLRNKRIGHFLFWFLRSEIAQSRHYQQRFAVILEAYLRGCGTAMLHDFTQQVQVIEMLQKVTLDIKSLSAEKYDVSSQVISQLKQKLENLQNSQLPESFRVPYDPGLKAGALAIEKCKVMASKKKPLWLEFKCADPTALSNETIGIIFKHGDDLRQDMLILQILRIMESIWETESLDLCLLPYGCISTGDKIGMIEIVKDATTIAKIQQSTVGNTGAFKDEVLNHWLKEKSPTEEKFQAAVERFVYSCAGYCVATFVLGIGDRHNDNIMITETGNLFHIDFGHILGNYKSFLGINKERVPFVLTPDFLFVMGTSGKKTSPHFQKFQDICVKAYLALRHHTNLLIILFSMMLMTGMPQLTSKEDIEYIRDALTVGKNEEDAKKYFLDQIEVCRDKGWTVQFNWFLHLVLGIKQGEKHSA

Row | Compound | IC50
1 | O=C(NC[C@H]1CCN(C(=O)N2CCCCC2)C1)Nc1nc2c(s1)-c1c(c(-c3cncnc3)nn1-c1ccccc1Cl)CC2 | < 0.8 µM
2 | CC(=O)Nc1cccc(CNC(=O)Nc2nc3c(s2)-c2c(c(-c4cccnc4)nn2C2CCN(C4CCCC4)CC2)CC3)c1 | < 0.8 µM
3 | CC(C)(C)OC(=O)CCNC(=O)Nc1nc2c(s1)-c1c(c(-c3ccccc3)nn1-c1ccccc1Cl)CC2 | < 0.8 µM
4 | O=C(NC[C@H]1CCCN1C(=O)N1CCCCC1)Nc1nc2c(s1)-c1c(c(-c3cncnc3)nn1-c1ccccc1Cl)CC2 | < 0.8 µM
5 | CC(C)c1nnc(CCNC(=O)Nc2nc3c(s2)-c2c(c(-c4cncnc4)nn2-c2ccccc2Cl)CC3)o1 | < 0.8 µM
6 | CC(C)c1nnc(CCNC(=O)Nc2nc3c(s2)-c2c(c(-c4cccnc4)nn2-c2ccccc2Cl)CC3)o1 | < 0.8 µM
7 | CC(C)(C)OC(=O)N1CCC[C@H]1CNC(=O)Nc1nc2c(s1)-c1c(c(-c3cncnc3)nn1-c1ccccc1F)CC2 | < 0.8 µM
8 | O=C(NCCCn1ccnc1)Nc1nc2c(s1)-c1c(c(-c3cncnc3)nn1-c1ccccc1Cl)CC2 | < 0.8 µM
9 | COC(=O)N1CCC[C@@H]1CNC(=O)Nc1nc2c(s1)-c1c(c(-c3cncnc3)nn1-c1ccccc1Cl)CC2 | < 0.8 µM
10 | O=C(NCc1cccc(N2CCNC2=O)c1)Nc1nc2c(s1)-c1c(c(-c3cncnc3)nn1-c1ccccc1Cl)CC2 | < 0.8 µM
11 | CC(C)(C)OC(=O)N1CCC(CNC(=O)Nc2nc3c(s2)-c2c(c(-c4cccnc4)nn2-c2ccccc2Cl)CC3)CC1 | < 0.8 µM
12 | Cn1cc(CCNC(=O)Nc2nc3c(s2)-c2c(c(-c4ccccc4)nn2-c2ccccc2Cl)CC3)cn1 | < 0.8 µM
13 | CS(=O)(=O)Nc1cccc(NC(=O)Nc2nc3c(s2)-c2c(c(-c4ccccc4)nn2-c2ccccc2Cl)CC3)c1 | < 0.8 µM
14 | NCCNC(=O)Nc1nc2c(s1)-c1c(c(-c3ccccc3)nn1-c1ccccc1Cl)CC2 | < 0.8 µM
15 | O=C1CCC(CNC(=O)Nc2nc3c(s2)-c2c(c(-c4cccnc4)nn2-c2ccccc2Cl)CC3)N1 (stereo not given) | < 0.8 µM
16 | CC(C)(C)OC(=O)CNC(=O)Nc1nc2c(s1)-c1c(c(-c3cccnc3)nn1C1CCN(C3CCCC3)CC1)CC2 | < 0.8 µM
17 | O=C(NCCNS(=O)(=O)C(F)(F)F)Nc1nc2c(s1)-c1c(c(-c3ccccc3)nn1-c1ccccc1Cl)CC2 | < 0.8 µM

Row | Compound | IC50
18 | CCc1cnc(CCNC(=O)Nc2nc3c(s2)-c2c(c(Nc4ccccn4)nn2-c2ccccc2)CC3)o1 | < 0.8 µM
19 | O=C(NCc1ccccc1-n1cccn1)Nc1nc2c(s1)-c1c(c(-c3cccnc3)nn1-c1ccccc1Cl)CC2 | < 0.8 µM
20 | NC(=O)c1cccc(CNC(=O)Nc2nc3c(s2)-c2c(c(C4CC4)nn2-c2ccccc2Cl)CC3)c1 | < 0.8 µM
21 | CN(C)CCOc1cccc(CNC(=O)Nc2nc3c(s2)-c2c(c(-c4cncnc4)nn2-c2ccccc2Cl)CC3)c1 | < 0.8 µM
22 | CN(C)CCNC(=O)Nc1nc2c(s1)-c1c(c(-c3cncnc3)nn1-c1ccccc1Cl)CC2 | < 0.8 µM
23 | O=C(NCCCN1CCOCC1)Nc1nc2c(s1)-c1c(c(-c3cncnc3)nn1-c1ccccc1Cl)CC2 | < 0.8 µM
24 | CC(=O)Nc1ccc(S(=O)(=O)NCCNC(=O)Nc2nc3c(s2)-c2c(c(-c4ccccc4)nn2-c2ccccc2Cl)CC3)cc1 | < 0.8 µM
25 | O=C1CCC(CNC(=O)Nc2nc3c(s2)-c2c(c(-c4cncnc4)nn2-c2ccccc2Cl)CC3)N1 (stereo not given) | < 0.8 µM
26 | CC(=O)NCC1CCCN(C(=O)Nc2nc3c(s2)-c2c(c(-c4cccnc4)nn2-c2ccccc2Cl)CC3)C1 (stereo not given) | < 0.8 µM
27 | CC(C)(C)OC(=O)N1CCN(c2cccc(NC(=O)Nc3nc4c(s3)-c3c(c(-c5cncnc5)nn3-c3ccccc3F)CC4)c2)CC1 | < 0.8 µM
28 | NS(=O)(=O)c1ccc(CNC(=O)Nc2nc3c(s2)-c2c(c(-c4cncnc4)nn2-c2ccccc2Cl)CC3)cc1 | < 0.8 µM
29 | CC(C)c1noc(CCNC(=O)Nc2nc3c(s2)-c2c(c(-c4cccnc4)nn2C2CCN(C)CC2)CC3)n1 | < 0.8 µM
30 | CC(C)(C)OC(=O)N1CCC[C@H]1CNC(=O)Nc1nc2c(s1)-c1c(c(-c3cncnc3)nn1-c1ccccc1Cl)CC2 | < 0.8 µM
31 | Cc1nc[nH]c1-c1cccc(CNC(=O)Nc2nc3c(s2)-c2c(c(-c4cccnc4)nn2-c2ccccc2Cl)CC3)c1 | < 0.8 µM
32 | CNC(=O)c1cccc(CNC(=O)Nc2nc3c(s2)-c2c(c(-c4cccnc4)nn2C2CCN(C)CC2)CC3)c1 | < 0.8 µM
33 | CCc1noc(CCNC(=O)Nc2nc3c(s2)-c2c(c(-c4cccnc4)nn2-c2ccccc2Cl)CC3)n1 | < 0.8 µM

The remaining lines, values ahead:

Row | IC50 | Compound
34 | < 0.8 µM | CS(=O)(=O)c1ccc(CNC(=O)Nc2nc3c(s2)-c2c(c(-c4cncnc4)nn2-c2ccccc2Cl)CC3)cc1
35 | < 0.8 µM | CN1CCN(CCNC(=O)Nc2nc3c(s2)-c2c(c(-c4cncnc4)nn2-c2ccccc2Cl)CC3)CC1
36 | < 0.8 µM | O=C(NCCN1CCNC1=O)Nc1nc2c(s1)-c1c(c(-c3ccccc3)nn1-c1ccccc1Cl)CC2
37 | < 0.8 µM | CCc1cnc(CCNC(=O)Nc2nc3c(s2)-c2c(c(-c4cncnc4)nn2C2CCN(C)CC2)CC3)o1
38 | < 0.8 µM | CC(C)c1cccc(CNC(=O)Nc2nc3c(s2)-c2c(c(-c4cccnc4)nn2-c2ccccc2Cl)CC3)c1
39 | < 0.8 µM | CC(C)(C)OC(=O)NCc1ccccc1NC(=O)Nc1nc2c(s1)-c1c(c(-c3cccnc3)nn1-c1ccccc1Cl)CC2
40 | < 0.8 µM | CCc1cnc(CCNC(=O)Nc2nc3c(s2)-c2c(c(-c4cccnc4)nn2-c2ccccc2Cl)CC3)o1
41 | < 0.8 µM | CNC(=O)[C@H](C)NC(=O)Nc1nc2c(s1)-c1c(c(-c3ccccc3)nn1-c1ccccc1Cl)CC2
42 | < 0.8 µM | CN(C)CCNC(=O)Nc1nc2c(s1)-c1c(c(-c3cncnc3)nn1-c1ccccc1F)CC2
43 | < 0.8 µM | O=C(Nc1nc2c(s1)-c1c(c(-c3cccnc3)nn1-c1ccccc1Cl)CC2)N1CCC2(CC1)C(=O)NCN2c1ccccc1
44 | < 0.8 µM | CN(C)C(=O)Nc1nc2c(s1)-c1c(c(-c3cccnc3)nn1-c1ccccc1Cl)CC2
45 | < 0.8 µM | O=C(NCc1ccc2cc[nH]c2c1)Nc1nc2c(s1)-c1c(c(-c3cccnc3)nn1-c1ccccc1Cl)CC2
46 | < 0.8 µM | CC(C)(C)OC(=O)N1CCCC(CNC(=O)Nc2nc3c(s2)-c2c(c(-c4cccnc4)nn2-c2ccccc2Cl)CC3)C1 (stereo not given)
47 | < 0.8 µM | CNC(=O)Nc1nc2c(s1)-c1c(c(-c3ccccc3)nn1-c1ccccc1Cl)CC2
48 | < 0.8 µM | NC(=O)c1cccc(CNC(=O)Nc2nc3c(s2)-c2c(c(-c4cncnc4)nn2-c2ccccc2Cl)CC3)c1
49 | < 0.8 µM | O=C(NCCN1CCOCC1)Nc1nc2c(s1)-c1c(c(-c3cccnc3)nn1-c1ccccc1Cl)CC2
50 | < 0.8 µM | CC(C)(C)OC(=O)N1CCC[C@@H]1CNC(=O)Nc1nc2c(s1)-c1c(c(-c3ccccc3)nn1-c1ccccc1F)CC2
51 | < 0.8 µM | O=C(NCCNS(=O)(=O)c1ccccn1)Nc1nc2c(s1)-c1c(c(-c3ccccc3)nn1-c1ccccc1Cl)CC2
52 | < 0.8 µM | CS(=O)(=O)Nc1ccc(NC(=O)Nc2nc3c(s2)-c2c(c(-c4ccccc4)nn2-c2ccccc2Cl)CC3)cc1
53 | < 0.8 µM | O=C(NCCc1nc(C2CC2)no1)Nc1nc2c(s1)-c1c(c(-c3cncnc3)nn1-c1ccccc1Cl)CC2
54 | < 0.8 µM | CC(C)c1noc(CCNC(=O)Nc2nc3c(s2)-c2c(c(-c4ccccc4)nn2-c2cccc(Cl)c2)CC3)n1
55 | < 0.8 µM | CC(C)(C)OC(=O)NCC1CCCN1C(=O)Nc1nc2c(s1)-c1c(c(-c3cccnc3)nn1-c1ccccc1Cl)CC2 (stereo not given)
56 | < 0.8 µM | CC(=O)Nc1cccc(CNC(=O)Nc2nc3c(s2)-c2c(c(-c4cccnc4)nn2-c2ccccc2Cl)CC3)c1
57 | < 0.8 µM | CCn1cnc(CCNC(=O)Nc2nc3c(s2)-c2c(c(-c4cccnc4)nn2-c2ccccc2Cl)CC3)c1

Row | IC50 | Compound
58 | < 0.8 µM | CNC(=O)c1cccc(CNC(=O)Nc2nc3c(s2)-c2c(c(C4CC4)nn2-c2ccccc2Cl)CC3)c1
59 | < 0.8 µM | CNC(=O)c1cccc(CNC(=O)Nc2nc3c(s2)-c2c(c(-c4cccnc4)nn2C2CCN(C4CCCC4)CC2)CC3)c1
60 | < 0.8 µM | O=C1CC[C@H](NC(=O)Nc2nc3c(s2)-c2c(c(-c4cccnc4)nn2-c2ccccc2Cl)CC3)CN1
61 | < 0.8 µM | CN1CCN(C(=O)N2CCC[C@@H]2CNC(=O)Nc2nc3c(s2)-c2c(c(-c4cncnc4)nn2-c2ccccc2Cl)CC3)CC1
62 | < 0.8 µM | CN1CCC(n2nc(-c3cccnc3)c3c2-c2sc(NC(=O)NCC(=O)N(C)C)nc2CC3)CC1
63 | < 0.8 µM | O=C(NCCC(=O)N1CCCC1)Nc1nc2c(s1)-c1c(c(-c3cncnc3)nn1-c1ccccc1Cl)CC2
64 | < 0.8 µM | CN1CCC(C(=O)N2CCC[C@@H]2CNC(=O)Nc2nc3c(s2)-c2c(c(-c4cncnc4)nn2-c2ccccc2Cl)CC3)C1 (stereo not given in full)
65 | < 0.8 µM | CN[C@@H](C)C(=O)N1CC[C@H](CNC(=O)Nc2nc3c(s2)-c2c(c(-c4cncnc4)nn2-c2ccccc2Cl)CC3)C1
66 | < 0.8 µM | CC(C)c1nnc(CCNC(=O)Nc2nc3c(s2)-c2c(c(C4CC4)nn2-c2ccccc2Cl)CC3)o1
67 | < 0.8 µM | NC(=O)N1Cc2ccc(CNC(=O)Nc3nc4c(s3)-c3c(c(-c5cccnc5)nn3-c3ccccc3Cl)CC4)cc2C1
68 | < 0.8 µM | O=C(NC[C@@H]1CCNC1)Nc1nc2c(s1)-c1c(c(-c3cncnc3)nn1-c1ccccc1Cl)CC2
69 | < 0.8 µM | CC(=O)Nc1cccc(CNC(=O)Nc2nc3c(s2)-c2c(c(C4CC4)nn2-c2ccccc2Cl)CC3)c1
70 | < 0.8 µM | CN(C)C(=O)Nc1nc2c(s1)-c1c(c(-c3cncnc3)nn1-c1ccccc1F)CC2
71 | < 0.8 µM | CC(C)c1cnc(CCNC(=O)Nc2nc3c(s2)-c2c(c(-c4cccnc4)nn2-c2ccccc2Cl)CC3)o1
72 | < 0.8 µM | CCCn1cnc(CCNC(=O)Nc2nc3c(s2)-c2c(c(-c4ccccc4)nn2-c2cccc(Cl)c2)CC3)c1
73 | < 0.8 µM | CC(C)CNC(=O)CCNC(=O)Nc1nc2c(s1)-c1c(c(-c3cncnc3)nn1-c1ccccc1Cl)CC2
74 | < 0.8 µM | Cn1cc(CNC(=O)Nc2nc3c(s2)-c2c(c(-c4cccnc4)nn2C2CCN(C4CCCC4)CC2)CC3)cn1
75 | < 0.8 µM | O=C(NCC1CCCN(c2ncccn2)C1)Nc1nc2c(s1)-c1c(c(-c3cccnc3)nn1-c1ccccc1Cl)CC2 (stereo not given)
76 | < 0.8 µM | CC(C)c1cnc(CCNC(=O)Nc2nc3c(s2)-c2c(c(-c4cncnc4)nn2-c2ccccc2Cl)CC3)o1
77 | < 0.8 µM | O=C(NCCCn1ccnc1)Nc1nc2c(s1)-c1c(c(-c3cncnc3)nn1-c1ccccc1F)CC2
78 | < 0.8 µM | O=C(NCCN1CCCC1=O)Nc1nc2c(s1)-c1c(c(-c3ccccc3)nn1-c1ccccc1Cl)CC2
79 | < 0.8 µM | CC(=O)N(C)c1cccc(CNC(=O)Nc2nc3c(s2)-c2c(c(-c4cccnc4)nn2C2CCN(C)CC2)CC3)c1
80 | < 0.8 µM | O=C(NCc1cccc(N2CCNC2=O)c1)Nc1nc2c(s1)-c1c(c(C3CC3)nn1-c1ccccc1Cl)CC2

Source: the Kinase Knowledgebase extract (Sharma et al. 2016)
